Starred links: 1 amine or outer side, 2 acyl side, 3 side chain; linkers in the order of their positions; H or OH if unused. Positions of bridges follow the written chain, without caps; N, C: chain ends. Non-standard residues stand in square brackets, D forms with d. Residues, ends and D or L forms follow the SMILES beside them. Chains are numbered I, II in the order given. Actinocin(9to1) = Cc1c2oc3c(C)ccc(C(=O)[*:1])c3nc-2c(C(=O)[*:2])c(N)c1=O; NMeV = CN[C@H](C(=O)O)C(C)C; Sar = CNCC(=O)O
Assays:
[1] = system: RNA 5′-rCUAGAUCUGA-3′ (SEQ ID NO: 23) double stranded RNA probe; assay: Fluorescence quenching direct binding assay, RNA; details: increasing bekanomycin
Method: (§1) The specific examples described in this section employ fluorescence quenching as the detection system. In these examples, because conditions are adjusted to maintain the oligonucleotides in single-stranded form in the absence of the ligand, the assay starts with the system at a high or maximum level of fluorescence, and fluorescence generally decreases, depending on binding affinity, as the ligand is added.
In the Figure legends, RNA oligonucleotides are denoted by an “r” at the beginning of the sequence, and single stranded controls by “ss” at the end of the sequence. These single stranded sequence, are used alone in control experiments, which thus employ only an “F” strand and no complementary quenching strand. Any quenching of fluorescence that is not due to hybridization can thus be acounted for. Maximum quenching expected on complete hybridization of these oligonucleotides is 85-90%; therefore some signal remains after complete hybridization. The signal is plotted so that it is normalized to the control signal in the absence of ligand.
Netropsin has been shown in previous studies to bind preferentially to A/T rich regions of DNA. […] Netropsin also binds well to the sequence 5′-GCGGTATTT-3′ (SEQ ID NO: 12), which is a useful “indicator” probe (as discussed below), having both C/G and A/T rich sequences. […]

[2] = system: A/T rich, G/C rich and mixed sequence DNA oligonucleotides; assay: SPA direct binding assay, sequence preference over panel of indicator oligonucleotides; details: A/T rich 5′-AAAATAATAAAG, G/C rich 5′-GGCGCGG, mixed 5′-GTTGCAGATC; increasing drug
From the text: This technology can be applied to studies of ligand binding as disclosed herein. […] These beads are impregnated with scintillant. The second oligonucleotide is labeled with a weak β-emitter, such as ^3H or ^33P. The radioactive second oligonucleotide is mixed with a solution of the beads under conditions at which the first and second oligonucleotides exist primarily as single strands, as described above. The signal will thus be low, as the oligonucleotides are non-hybridized. When ligand is added, the duplex form is stabilized, and the increased proximity of the radioactive isotope (e.g., ^3H, ^33P) in the second oligonucleotide causes the bead to which the first oligonucleotide is bound to scintillate. A signal thus indicates the presence of an effective binding ligand molecule; test sequences giving higher signals indicate the relative preference for different sequences.
Indicator oligonucleotides as shown in Table 1 were used in this assay, as shown in Table II and FIGS. 4A-E. One strand of each duplex was labeled with biotin at the 5′-end, and the complementary strand was 3′-labeled with ^33P. The two complementary strands were incubated with streptavidin-coated SPA beads (Amersham, Arlington Heights, Ill.) at room temperature in a buffer containing 20 mM HEPES, pH 7.5, 0.1 mM EDTA, and 20 mM NaCl. In the absence of ligand, and under these conditions, the oligonucleotides exist in single-stranded conformation. As a result, the oligonucleotide containing the radioactive label is not in close proximity to the SPA bead, and the light given off by the beads is low, i.e., at background. As a duplex-stabilizing ligand is added, the radioactive ^33P is brought into close proximity to the SPA bead, and the light emitted from the SPA bead increases.

[3] = system: F/Q indicator oligonucleotide pairs (Table I); assay: Fluorescence quenching direct binding assay, panel of F/Q indicator oligonucleotide pairs; details: concentrations up to 5 μM; tRNA added
Method: as §1
In the Figure legends, RNA oligonucleotides are denoted by an “r” at the beginning of the sequence, and single stranded controls by “ss” at the end of the sequence. These single stranded sequence, are used alone in control experiments, which thus employ only an “F” strand and no complementary quenching strand. Any quenching of fluorescence that is not due to hybridization can thus be acounted for. Maximum quenching expected on complete hybridization of these oligonucleotides is 85-90%; therefore some signal remains after complete hybridization. […]
According to the general method described above, increasing amounts of netropsin or actinomycin, respectively, were added to mixtures of selected F/Q indicator oligonucleotide pairs, whose sequences are shown in the legends of FIGS. 1 and 3. […] The Figures show the level of fluorescence observed, relative to a control having no added drug, for each indicator pair (or single strand) as the level of added drug was increased. […]

Row | Structure (SMILES) | binding preference over all other test oligonucleotides (FIG. 3C) [1] | sequence preference of binding (FIGS. 4A-E) [2] | sequences bound (FIG. 3B) [3]
1 | NCC1OC(OC2C(N)CC(N)C(OC3OC(CO)C(O)C(N)C3O)C2O)C(N)C(O)C1O (centres unmarked) [Bekanomycin, bekanomycin] | very strong preference for the double stranded RNA probe | – | –
2 | Cc1c2oc3c(C)ccc(C(=O)N[C@@H]4C(=O)N[C@H](C(C)C)C(=O)N5CCC[C@H]5C(=O)N(C)CC(=O)N(C)[C@@H](C(C)C)C(=O)O[C@@H]4C)c3nc-2c(C(=O)N[C@@H]2C(=O)N[C@H](C(C)C)C(=O)N3CCC[C@H]3C(=O)N(C)CC(=O)N(C)[C@@H](C(C)C)C(=O)O[C@@H]2C)c(N)c1=O [actinomycin D] (I: T[dV]P[Sar][NMeV] / II: T[dV]P[Sar][NMeV]; ester I:1-I:C, II:1-II:C; linker I:N-II:N via Actinocin(9to1)) | – | preferred GC-rich sequences | binding only to the C/G containing sequences (SEQ ID NOS: 6, 8, and 12)
3 | CC(=O)NCC(=O)O.CC(=O)NCC(=O)O.N=C(N)c1ccc(N=NNc2ccc(C(=N)N)cc2)cc1 [berenil] | – | no strong preference | –
4 | COC(C(=O)C(O)C(C)O)C1Cc2cc3cc(OC4CC(OC5CC(O)C(OC)C(C)O5)C(OC(C)=O)C(C)O4)c(C)c(O)c3c(O)c2C(=O)C1OC1CC(OC2CC(OC3CC(C)(O)C(OC(C)=O)C(C)O3)C(O)C(C)O2)C(O)C(C)O1 (centres unmarked) [chromomycin A] | – | preferred GC-rich sequences | –

Reference: patent publication US6355428B1, “Nucleic acid ligand interaction assays” (Genelabs Technologies, Inc., priority 1998, dated 2002)
